{
  "source": "patent US20100159030A1",
  "about": "“METHODS FOR DETECTING AND MODULATING THE SENSITIVITY OF TUMOR CELLS TO ANTI-MITOTIC AGENTS AND FOR MODULATING TURMORGENICITY” (NewSouth Innovations Pty Limited, priority 2007, published 2010)",
  "key": {"H460 cells [1]": {"system": "H460 cells", "assay": "Soft agar colony assay (anchorage-independent cell growth)", "format": "cell-based, Human", "details": "vs mock or control siRNA/shRNA cells; 27-mers at 5 nM", "protocol": "H460 cells were transfected with βIII-tubulin siRNA or control siRNA for 24 h as described above. Cells from each sample (1,000 cells per dish) were resuspended in 0.33% agar (37° C.) in RPMI containing 20% FCS, and plated onto 0.5% solidified agar/20% FCS/RPMI (37° C., bottom supportive layer) in 35 mm dishes. Triplicate plates were set up for each sample. The plates were placed at 4° C. for 10 min to solidify the top agar and then incubated at 37° C. in 5% CO2 for 12 days. After 12 days of culture, the colonies were counted and photographed using the Zeiss Axiovert S100 inverted microscope, 5× objective and SPOT digital camera (Thornwood, N.Y.)."}, "H460 cells [2]": {"system": "H460 cells", "assay": "Apoptosis induction, Annexin V-FITC flow cytometry", "format": "cell-based, Human", "details": "βIII-tubulin siRNA vs control siRNA cells, 48 h; paclitaxel 1, 2, 5 nM; cisplatin 0.4 or 1 μM", "protocol": "Annexin V-FITC staining followed by flow cytometry analysis was performed to address whether the increase in the sub-G1 population following exposure to tubulin-binding agents in the βIII-tubulin siRNA treated cells was related to an increase in apoptosis induction. Apoptosis induction was determined by transfecting H460 cells with siRNA for 72 h and harvesting (adherent and suspension) cells 48 h after drug treatment, as previously described in Pasquier et al., Mol Cancer Ther 2004; 3:1301-10. Briefly, 1×10^5 cells were incubated with Annexin V-FITC and propidium iodide for 15 min in the dark (Becton-Dickinson), immediately followed by flow cytometry using a FACSCalibur (Becton-Dickinson). Cytogram analysis was performed using CellQuest® software."}, "[3]": {"system": "H460 cells stably expressing control or class III β-tubulin shRNA in subcutaneous tumors", "assay": "Nude mouse xenograft, cisplatin (CDDP) treatment of tumors from H460 shRNA clones", "format": "in vivo, BALB/c athymic nude mice", "details": "3 doses CDDP 3.33 mg/kg over 3 days", "protocol": "FIG. 22 is a column chart illustrating the mean number of days for tumor to reach 1000 mm^3 post-treatment with cisplatin (CDDP) or phosphate buffered saline control (PBS) in a nude mouse xenograft animal model. Graphs illustrate results for control shRNA clones 1 and 2 with and without CDDP treatment and βIII-tubulin shRNA clones 4 and 59 with and without CDDP treatment. Once tumors reached approx 300 mm3 mice were treated with 3 doses of CDDP 3.33 mg/kg over 3 days or its vehicle control (PBS). Tumors were then measured twice weekly and mice were sacrificed once tumors reached 1000 mm^3 (n=5 mice per treatment group). Mean number of days were: Control clone 1 (PBS) 15.6 days±4.95; Control clone 1 (CDDP) 13 days±4.21; Control clone 2 (PBS) 7.2 days±1.5; Control clone 2 (CDDP) 10.8 days±3.54; class III 3-tubulin shRNA clone 4 (PBS) 15.6 days±3.12; class III β-tubulin shRNA clone 4 (CDDP) 35 days±3.03; class III β-tubulin shRNA clone 59 (PBS) 15.6 days±2.11; class III β-tubulin shRNA clone 59 (CDDP) 29.4 days±3.93.\nFIG. 24A is a plot of tumor volume over time in a nude mouse xenograft animal model following treatment with cisplatin (CDDP) or phosphate buffered saline control (PBS). Tumor size was plotted in mm^3 for control clone 2 with or without CDDP post-treatment and class III β-tubulin shRNA clone 4 with and without CDDP post-treatment. Once tumors reached approx 300 mm^3 mice were treated with 3 doses of CDDP (3.33 mg/kg) over 3 days or its vehicle control (PBS). Tumors were then measured twice weekly and mice sacrificed once tumors reached 1000 mm^3 FIG. 24B illustrates Kaplin Meier survival curves for tumors of two different clones with or without class III β-tubulin silencing and following CDDP or PBS vehicle treatment in vivo. Clone 2 was a control clone and clone 4 was class III β-tubulin silenced with shRNA. FIG. 24C is a plot of tumor size over time in a nude mouse xenograft animal model following treatment with cisplatin (CDDP) or phosphate buffered saline control (PBS). […] Tumors were then measured twice weekly and mice sacrificed once tumors reached 1000 mm^3 FIG. 24D illustrates Kaplin Meier survival curves for control clone 2 with and without CDDP post-treatment and for class III β-tubulin shRNA clone 59 with and without CDDP post-treatment. […]\nFemale BALB/c athymic nude mice (5-6 week old) were maintained under pathogen-free conditions. […] The animals were monitored twice a week from the second week post-injection for tumor formation and health status. Tumor diameter was measured twice per week using a digital caliper throughout the experiment, and tumor volume in mm^3 was calculated using the formula: Volume=(length×width×depth)/2. […]"}, "NSCLC H460 cells": {"system": "NSCLC H460 cells", "assay": "Drug-treated clonogenic assay (surviving fraction, ID50) on siRNA/shRNA-transfected cells", "format": "cell-based, Human", "details": "for RS (relative sensitivity): Table 3", "protocol": "Cells were transfected for 24 h and approximately 600 cells (for Calu-6) or 150 cells (for H460) were seeded into each well of a 6-well plate and allowed to attach for 4-6 h. The cell lines used in this study were not subject to prior drug selection, and are likely to represent intrinsic drug resistance observed in lung carcinoma.\nCells were then treated with increasing concentrations of various anti-mitotic drugs. Following a 3-day incubation at 37° C., the drug-containing medium was removed and replaced with fresh complete medium. Medium was changed at 3-4 day intervals for 7 to 10 days until visible colonies formed. […] Surviving colonies were simultaneously fixed and stained with 0.5% crystal violet in methanol, rinsed with water to remove excess stain and air-dried overnight.\nThe colonies in each well were manually counted, and the results were presented as surviving fraction according to the formula: surviving fraction was calculated as follows: colony number/(number of cells seeded×plating efficiency), where plating efficiency is equivalent to the colony number divided by the number of cells seeded in the drug-free medium. Dose-response curves were plotted for each drug-cell line combination and inhibitory dose (ID50) values were extrapolated from this curve using GraphPad Prism program (GraphPad Software, version 4, San Diego, Calif.). ID50 was defined as the concentration of the drug required to reduce the number of colonies in drug-treated wells to 50% of that of the relevant untreated control wells. The ID50 values were the means of at least four independent experiments.\nTo quantitate any change in drug sensitivity, drug treated clonogenic assays were performed. Twenty-four hours after siRNA transfection, cells were harvested and plated into 6-well plates for 6 h, prior to the addition of various drugs as indicated in the figure legends. After 72 h incubation, the drug-containing media was removed and replaced with complete growth media. Medium was changed every 3 days for 7 to 10 days until visible colonies formed. Colonies were simultaneously fixed and stained with 0.5% crystal violet in methanol, and manually counted. Individual stained colonies in each well were counted and the surviving fraction was calculated as follows: colony number/(number of cells seeded×plating efficiency), where plating efficiency equals the colony number divided by the number of cells seeded in drug-free media."}, "class III β-tubulin": {"system": "class III β-tubulin", "assay": "Knockdown of class III β-tubulin expression (western blot, RT-PCR)", "format": "cell-based, Human", "details": "H460, subculturing time course", "protocol": "The effects of βIII-tubulin siRNA transfection on the gene and protein expression of the isotype, were assessed by RT-PCR and western blotting. For RT-PCR, total RNA was extracted from the transfected cells using the Trizol® reagent (Invitrogen), according to the manufacturer's instructions. RNA samples were DNAse-treated, reverse transcribed for RT-PCR analysis using methodology and specific primers as described in detail previously (Kavallaris et al. (1997) J Clin Invest 100, 1282-1293). B eta-2-micro globulin (β2M) was used as an internal mRNA control. Preparation of protein lysates and Western blot analysis were performed as follows. […] Primary antibodies were detected using horseradish peroxidase-linked secondary antibody (Amersham Pharmacia Biotech, Uppsala, Sweden) and enhanced chemiluminescence (GE Healthcare, Uppsala, Sweden) was used for detection. The blots were scanned using the Typhoon® scanner and quantified using ImageQuant® software version 5.2 (Molecular Dynamics Inc, Sunnyvale, Calif.). […]"}},
  "data": [
    {"compound": "27-mer βIII siRNA Sequence-8: 27-mer siRNA to class III β-tubulin, SEQ ID NO: 11 and 12, position 1521-1545 (chain 1 AGACAGAGACAGGAGCAGCUCACACGU; chain 2 GUGUGAGCUGCUCCUGUCUCUGUCT; chemistry not given here)", "values": [
      {"measurement": "number of colonies in soft agar", "setting": "H460 cells [1]", "value": "significantly less colonies"}
    ]},
    {"compound": "[NH2][Pt]([NH2])([Cl])[Cl]", "note": "[CDDP, cisplatin]", "values": [
      {"measurement": "percentage of apoptotic cells", "setting": "H460 cells [2]", "value": "significant increase in the number of apoptotic cells"},
      {"measurement": "mean number of days for tumor to reach 1000 mm^3 post-treatment", "setting": "[3]; Control clone 1", "value": 13, "unit": "days"},
      {"measurement": "mean number of days for tumor to reach 1000 mm^3 post-treatment", "setting": "[3]; Control clone 2", "value": 10.8, "unit": "days"},
      {"measurement": "mean number of days for tumor to reach 1000 mm^3 post-treatment", "setting": "[3]; class III β-tubulin shRNA clone 4", "value": 35, "unit": "days"},
      {"measurement": "mean number of days for tumor to reach 1000 mm^3 post-treatment", "setting": "[3]; class III β-tubulin shRNA clone 59", "value": 29.4, "unit": "days"},
      {"measurement": "RS (relative sensitivity)", "setting": "NSCLC H460 cells; Ctrl clone 2 compared to ctrl clone 1", "value": "(1.06, NS)"},
      {"measurement": "RS (relative sensitivity)", "setting": "NSCLC H460 cells; βIII shRNA clone 4 compared to ctrl clone 1", "value": "(2.42, 0.0002***)"},
      {"measurement": "RS (relative sensitivity)", "setting": "NSCLC H460 cells; βIII shRNA clone 59 compared to ctrl clone 1", "value": "(1.86, 0.001**)"},
      {"measurement": "RS (relative sensitivity)", "setting": "NSCLC H460 cells; βIII shRNA clone 60 compared to ctrl clone 1", "value": "(1.72, 0.0019**)"},
      {"measurement": "change in drug sensitivity (clonogenic survival)", "setting": "NSCLC H460 cells; βIII-tubulin siRNA silencing vs controls, H460", "value": "increased sensitivity"}
    ]},
    {"compound": "27-mer βIII siRNA Sequence-11: 27-mer siRNA to class III β-tubulin, SEQ ID NO: 13 and 14, position 1352-1376 (chain 1 UCUCACUCCAGCUGCGAGCAGCUUCAC; chain 2 GAAGCUGCUCGCAGCUGGAGUGAGA; listed as RNA, chemistry not given here)", "values": [
      {"measurement": "duration of class III β-tubulin protein knockdown", "setting": "class III β-tubulin", "value": 6, "unit": "days"},
      {"measurement": "number of colonies in soft agar", "setting": "H460 cells [1]", "value": "significantly less colonies"}
    ]}
  ]
}
